Where two headings read alike, the source gives them in different places.
Assays:
[1] = MTT cytotoxicity assay in BHK-21 cells; type: cell-based; settings: hamster, BHK-21 cells (baby hamster kidney), 24 h post-treatment
Procedure: Cytotoxicity of each compound towards cells for four selected cell lines in the range of 1 to 500 µM was evaluated using the MTT (3-(4,5-dimethylthiazol-2-yl)-2,5-diphenyltetrazolium bromide) assay at 24 h post-treatment, in parallel with control and vehicle-treated cells (0.1% dimethyl sulfoxide (DMSO)). The 50% cytotoxic concentration (CC50) values calculated from the dose-response curve (Supplementary Figures S2–S5) are shown in Table 1. Overall, a range of cytotoxicities were seen from the four compounds across the […]. The most cytotoxic combination was ZAD-1 and BHK-21 cells, while the least cytotoxic combination was andrographolide and BHK-21 cells (Table 1).
A549 cells were cultured in ninety-six-well tissue culture plates under standard conditions until the cells reached 90% confluence. The cell culture medium was removed and then cells were incubated with various concentrations of andrographolide (1–100 μM) diluted in complete medium with FBS prior to being cultured for 24 h under standard conditions before analysis using either the Vybrant MTT Cell proliferation assay kit (V13154, Invitrogen) or the alamarBlue (Thermo Fischer Scientific, Waltham, MA, USA) assay kit according to the manufacturers recommendations. Values were determined from 8 (MTT assay) or 3 (alamarBlue) independent replicates. Negative controls (only media and media with 0.1% DMSO) and positive controls (5% DMSO) were included. To determine cell number, cell cultures were trypsinized by the addition of 0.25% Trypsin/0.1% ethylelediaminetetraacetic acid (EDTA) for 3 min and then cell suspensions were diluted with 0.4% trypan blue solution. Cells were counted using a hemocytometer. Cell morphology was additionally observed under an inverted microscope after 24 h treatment with various concentrations of each compound.
Figu re S2. Cytotoxicity of ZAD -1 (A), ZA D-2 (B), ZA D-3 (C), and andro grapholide (D) to BHK- 21 (baby hamster kidney) cells. BHK- 21 cells were incubated with various concentrations of each compound for 24 hrs followed by MTT cell viability assay. The experiment was undertaken independently in 4 replicates.
DMSO at the same concentrations was used as a control. 10% ethanol, PBS, and milli- Q water were used as a positive control of cell death. The bars show mean ± SD. […]

[2] = set-up: method as in PMID 11081986; settings: cited from earlier work
DENV 2 [3] = system: DENV 2; set-up: method as in PMID 30396090; settings: HepG2 cells; read-out: EC50 towards DENV 2; cited from earlier work
DENV 2 [4] = system: DENV 2; set-up: method as in PMID 30396090; settings: HeLa cells; read-out: EC50 towards DENV 2; cited from earlier work

Row | Compound | CC50 at 24 h [1] [µM] | bioavailability [2] | EC50 (DENV 2 [3]) [µM] | EC50 (DENV 2 [4]) [µM]
1 | C=C1CC[C@@H]2[C@]3(C)COC(C)(C)O[C@@H]3CC[C@@]2(C)[C@@H]1C/C=C1/C(=O)OC[C@@H]1Oc1c(Cl)cc(Cl)c2ccc(C)nc12 [ZAD-1] | 136 ± 6 |  |  | 
2 | C=C1CC[C@@H]2[C@](C)(CO)[C@H](O)CC[C@@]2(C)[C@@H]1C/C=C1/C(=O)OC[C@H]1O [Andrographolide] | 600 ± 75 | relatively poor | 21.3 | 22.7
